Results: ChEMBL document CHEMBL6153025, “Multidrug-resistant bacteria quorum-sensing inhibitors: A particular focus on Pseudomonasaeruginosa” (Eur J Med Chem, 2025)
≈ marks a conversion by molar mass, not a printed value.

How the values were obtained:
[1] = Inhibition of quorum sensing system in Pseudomonas aeruginosa PAO1 expressing lasB-gfp at 16 uM relative to control
Pseudomonas aeruginosa [2] = experiment: Antibiofilm activity against Pseudomonas aeruginosa PA14 assessed as reduction in biofilm formation at 16 ug/ml incubated for 2 to 4 hrs by crystal violet staining based analysis relative to control; type: functional; set-up: scale not given: the % may be the effect or the level left; settings: dose 16 µg/ml; time 2-4 hrs
[3] = Inhibition of quorum sensing system in Pseudomonas aeruginosa PA14 assessed as inhibition of pyocyanin production at 128 ug/ml relative to control; settings: dose 128.0 µg/ml
[4] = biological target: T1, Transcriptional activator protein LasR (Pseudomonas aeruginosa (strain ATCC 15692 / PAO1 / 1C / PRS 101 / LMG12228)) (UniProt P25084); experiment: Inhibition of LasR-mediated quorum sensing system in Pseudomonas aeruginosa PAO1 at 128 ug/ml relative to control; settings: dose 128.0 µg/ml
T1 sequence (whole entry): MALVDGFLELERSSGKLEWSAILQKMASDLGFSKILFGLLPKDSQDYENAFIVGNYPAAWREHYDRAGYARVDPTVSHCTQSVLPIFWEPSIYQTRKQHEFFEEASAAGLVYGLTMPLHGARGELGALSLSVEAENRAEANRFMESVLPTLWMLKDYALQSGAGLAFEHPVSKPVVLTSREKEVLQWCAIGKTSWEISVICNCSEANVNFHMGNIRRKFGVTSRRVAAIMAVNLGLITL

Pseudomonas aeruginosa [5] = experiment: Antibiofilm activity against Pseudomonas aeruginosa PA14 assessed as inhibition of biofilm formation at 16 ug/ml incubated for 24 hrs by microscopic analysis relative to control; type: functional; set-up: scale not given: the % may be the effect or the level left; settings: dose 16 µg/ml
Pseudomonas aeruginosa [6] = experiment: Antivirulence activity against Pseudomonas aeruginosa PAO1 assessed as reduction in protease production; type: functional, organism-based
Pseudomonas aeruginosa [7] = experiment: Antibacterial activity against Pseudomonas aeruginosa PAO1 assessed as bacterial growth inhibition after 20 hrs by liquid microdilution method; type: functional, organism-based; settings: PAO1, 20 h
Pseudomonas aeruginosa [8] = experiment: Antivirulence activity against Pseudomonas aeruginosa PAO1 assessed as reduction in pyocyanin production; type: functional, organism-based
Pseudomonas aeruginosa [9] = experiment: Antivirulence activity against Pseudomonas aeruginosa PAO1 assessed as reduction in elastase production; type: functional, organism-based
Pseudomonas aeruginosa [10] = experiment: Downregulation of lasR mRNA expression in Pseudomonas aeruginosa PAO1; type: functional
Pseudomonas aeruginosa [11] = experiment: Downregulation of lasB mRNA level in Pseudomonas aeruginosa PAO1; type: functional
Pseudomonas aeruginosa [12] = experiment: Antivirulence activity against Pseudomonas aeruginosa PAO1 assessed as inhibition of pyocyanin production at 16 ug/ml relative to control; type: functional; set-up: scale not given: the % may be the effect or the level left; settings: dose 16 µg/ml
Pseudomonas aeruginosa [13] = experiment: Antibiofilm activity against Pseudomonas aeruginosa PAO1 assessed as inhibition of biofilm formation at 16 ug/ml incubated for 24 hrs by crystal violet staining based assay relative to control; type: functional; set-up: scale not given: the % may be the effect or the level left; settings: dose 16 µg/ml
Pseudomonas aeruginosa [14] = experiment: Antibacterial activity against Pseudomonas aeruginosa PAO1 by broth microdilution method; type: functional
Pseudomonas aeruginosa [15] = experiment: Antivirulence activity against Pseudomonas aeruginosa PAO1 assessed as inhibition of rhamnolipid production at 16 ug/ml relative to control; type: functional; set-up: scale not given: the % may be the effect or the level left; settings: dose 16 µg/ml
Pseudomonas aeruginosa [16] = experiment: Anti-virulence effect in Pseudomonas aeruginosa PAO1 assessed as inhibition of rhamnolipid production at 10 uM relative to control; type: functional; set-up: scale not given: the % may be the effect or the level left
Pseudomonas aeruginosa [17] = experiment: Antibacterial activity against Pseudomonas aeruginosa PAO1 assessed as bacterial growth inhibition measured after 18 hrs by CLSI protocol based two-fold serial microdilution method; type: functional
Pseudomonas aeruginosa [18] = experiment: Antivirulence activity against Pseudomonas aeruginosa PAO1 assessed as inhibition of pyocyanin production at 25 ug/ml incubated for 16 hrs under agitation by photometric analysis relative to control; type: functional; set-up: scale not given: the % may be the effect or the level left; settings: dose 25 µg/ml
Pseudomonas aeruginosa [19] = experiment: Antibiofilm activity against Pseudomonas aeruginosa PAO1 assessed as inhibition of biofilm formation at 250 ug/ml incubated for 24 hrs by crystal violet staining based assay relative to control; type: functional; set-up: scale not given: the % may be the effect or the level left; settings: dose 250 µg/ml
Pseudomonas aeruginosa [20] = experiment: Antibiofilm activity against Pseudomonas aeruginosa PAO1 assessed as reduction in biofilm formation at 16 ug/ml incubated for 2 to 4 hrs by crystal violet staining based analysis relative to control; type: functional; set-up: scale not given: the % may be the effect or the level left; settings: dose 16 µg/ml; time 2-4 hrs
Pseudomonas aeruginosa [21] = experiment: Anti-virulence effect in Pseudomonas aeruginosa PAO1 assessed as inhibition of pyocyanin production at 250 ug/ml relative to control; type: functional; set-up: scale not given: the % may be the effect or the level left; settings: dose 250 µg/ml
Pseudomonas aeruginosa [22] = experiment: Anti-virulence effect in Pseudomonas aeruginosa PAO1 assessed as inhibition of rhamnolipid production at 250 ug/ml relative to control; type: functional; set-up: scale not given: the % may be the effect or the level left; settings: dose 250 µg/ml
Pseudomonas aeruginosa [23] = experiment: Antibiofilm activity against Pseudomonas aeruginosa PAO1 assessed as inhibition of biofilm formation at 32 ug/ml incubated for 8 hrs by crystal violet staining based assay relative to control; type: functional; set-up: scale not given: the % may be the effect or the level left; settings: dose 32 µg/ml
[24] = Inhibition of quorum sensing system in Pseudomonas aeruginosa PAO1 expressing lasB-gfp assessed as reduction fluorescence intensity measured for 12 hrs by GFP reporter strain assay

CCCCCCC/C=C\C(=O)O
inhibition [1]: 44% | Activity (Pseudomonas aeruginosa [2]): 8%

O=C(CN1CCOCC1)Nc1cccc([N+](=O)[O-])c1
inhibition [3]: 75% | inhibition [4]: 45.1% | Activity (Pseudomonas aeruginosa [5]): 77%

COc1c(O)cc(O)c2c(=O)cc(-c3ccccc3)oc12 [WOGONIN]
IC50 (Pseudomonas aeruginosa [6]): 15 µg/mL (≈ 52.8 µM) | IC50 (Pseudomonas aeruginosa [7]): 15 µg/mL (≈ 52.8 µM) | IC50 (Pseudomonas aeruginosa [8]): 15 µg/mL (≈ 52.8 µM) | IC50 (Pseudomonas aeruginosa [9]): 15 µg/mL (≈ 52.8 µM)

COc1ccccc1N1CCN(c2ccnc(SCC(=O)Nc3c(C)cc(C)cc3C)n2)CC1
Activity (Pseudomonas aeruginosa [10]): 85% | Activity (Pseudomonas aeruginosa [11]): 85% | Activity (Pseudomonas aeruginosa [12]): 76.56% | Activity (Pseudomonas aeruginosa [13]): 52.4% | MIC (Pseudomonas aeruginosa [14]): 500 µM (≈ 239 µg/mL) | Activity (Pseudomonas aeruginosa [15]): 62.46%

Oc1ncnc2[nH]ncc12 [ALLOPURINOL]
Activity (Pseudomonas aeruginosa [16]): 74% | MIC (Pseudomonas aeruginosa [17]): 2 µg/mL (≈ 14.7 µM) | Activity (Pseudomonas aeruginosa [12]): 74% | Activity (Pseudomonas aeruginosa [18]): 70%

O=C1CCc2ccccc2O1 [DIHYDROCOUMARIN]
Activity (Pseudomonas aeruginosa [19]): 46.1% | Activity (Pseudomonas aeruginosa [20]): 36% | Activity (Pseudomonas aeruginosa [21]): 87.25% | Activity (Pseudomonas aeruginosa [22]): 48.94%

[O-][S+](Cc1ccc(Cl)cc1)c1nnc(-c2ccccc2)o1 (stereo not given)
Activity (Pseudomonas aeruginosa [23]): 46.8% | IC50 [24]: 3.53 µM
